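Compound exposure: 48 hours, 5 concentrations, 96-well plates. The concentration for 50% growth inhibition is given as GI50.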 Calls of active or inactive are those of the source. Cut-off read from the data, not from the text of the source: active = GI50 up to about 1.1 µM and inactive = higher.
Legend:
Test in all cases: inhibition of tumour cell growth, NCI panel, 48 h
[1] = test system: BT-549
[2] = test system: MDA-MB-435
[3] = test system: MDA-N
[4] = test system: NCI/ADR-RES
[5] = test system: SK-MEL-5
[6] = test system: SK-MEL-2
[7] = test system: ACHN
[8] = test system: HCT-116
[9] = test system: MCF7
[10] = test system: MDA-MB-231
[11] = test system: SF-295
[12] = test system: NCI-H522
[13] = test system: KM12
[14] = test system: OVCAR-5
[15] = test system: SF-539

| SMILES | GI50 [1] | GI50 [2] | GI50 [3] | GI50 [4] | GI50 [5] | GI50 [6] | GI50 [7] | GI50 [8] | GI50 [9] | GI50 [10] | GI50 [11] | GI50 [12] | GI50 [13] | GI50 [14] | GI50 [15] |
| --- | --- | --- | --- | --- | --- | --- | --- | --- | --- | --- | --- | --- | --- | --- | --- |
| C=C(Br)CN(C)CC(=C)Br | > 100 µM (inactive) | > 100 µM (inactive) | > 100 µM (inactive) | > 100 µM (inactive) | > 100 µM (inactive) | > 100 µM (inactive) | > 100 µM (inactive) | > 100 µM (inactive) | > 100 µM (inactive) | > 100 µM (inactive) | > 100 µM (inactive) | > 100 µM (inactive) | > 100 µM (inactive) | > 100 µM (inactive) |  |
| CC/C=C(\C(=C/CC)[N+](=O)[O-])[N+](=O)[O-] | 18.1 µM (inactive) | 16.8 µM (inactive) | 22.8 µM (inactive) | 20.7 µM (inactive) | 31 µM (inactive) | 47.5 µM (inactive) | 18.7 µM (inactive) | 19.9 µM (inactive) | 16.7 µM (inactive) | 21 µM (inactive) | > 100 µM (inactive) |  | > 10 µM (inactive) | 13.4 µM (inactive) | 21.3 µM (inactive) |
| Cc1ccc(S(=O)(=O)N(c2ccccc2F)C2CCCCC2O)cc1 (stereo unspecified) | 14.6 µM (inactive) | 19.4 µM (inactive) | 19.9 µM (inactive) | 42.4 µM (inactive) | 20.7 µM (inactive) | 29.4 µM (inactive) | 57.7 µM (inactive) | 18 µM (inactive) | 21.7 µM (inactive) | 77.6 µM (inactive) | > 100 µM (inactive) |  | 33.1 µM (inactive) | > 100 µM (inactive) | > 100 µM (inactive) |
| CC/C=C/C[C@H](O[Si](C)(C)C(C)(C)C)[C@H]1C[C@H]2O[C@H]([C@@H](O)C#C[Si](C)(C)C)C[C@H]2O1 | 19.2 µM (inactive) | 12.3 µM (inactive) | 12.2 µM (inactive) | 13.3 µM (inactive) | 6.78 µM (inactive) | 15.5 µM (inactive) | 15.2 µM (inactive) | 12.1 µM (inactive) | 6.92 µM (inactive) | 14.9 µM (inactive) | 14.3 µM (inactive) | 3.64 µM (inactive) | 17.9 µM (inactive) | 14.1 µM (inactive) |  |
| O=C(NS(=O)(=O)OCC(Cl)(Cl)Cl)SCCC(F)(F)C(F)(F)C(F)(F)C(F)(F)C(F)(F)C(F)(F)F | 49 µM (inactive) | 23.8 µM (inactive) |  | 20.2 µM (inactive) |  | 25.3 µM (inactive) | 40.9 µM (inactive) | 19.8 µM (inactive) | 20 µM (inactive) | 25.4 µM (inactive) | 20.2 µM (inactive) | 20 µM (inactive) | 19.9 µM (inactive) | 18.6 µM (inactive) | 16.8 µM (inactive) |
| COc1cccc(CCn2c(N)c(C#N)c3ccc([N+](=O)[O-])cc3c2=O)c1 | > 10 µM (inactive) | 0.22 µM (active) | 0.256 µM (active) | > 46.5 µM (inactive) | > 100 µM (inactive) | > 46.5 µM (inactive) | > 46.5 µM (inactive) | > 46.5 µM (inactive) | > 31.6 µM (inactive) | > 46.5 µM (inactive) | > 31.6 µM (inactive) |  | > 31.6 µM (inactive) | > 31.6 µM (inactive) | > 10 µM (inactive) |
| CC1=CCC2CC1C(C(=O)c1c[nH]c3ccccc13)=NC2(C)C (stereo unspecified) | 40 µM (inactive) | 47.8 µM (inactive) | > 10 µM (inactive) | 59.3 µM (inactive) | 37.6 µM (inactive) |  | 73.6 µM (inactive) | 50.4 µM (inactive) | 54.6 µM (inactive) | 51.9 µM (inactive) |  | 44.4 µM (inactive) | 52.4 µM (inactive) | > 100 µM (inactive) | > 100 µM (inactive) |
